Measurements: patent US10995073B2 (CANCER RESEARCH TECHNOLOGY LIMITED, priority 2014, dated 2021)

Target: Human Full Length PARG (Homo sapiens (Human), UniProt Q86W56)
Assay: PARG assay (in vitro enzyme, TR-FRET)
Settings: PARG biochemical activity; read-out: PARG_EC50_ENZYME
Procedure: PARG In vitro assays were conducted in a total volume of 15 ul in a standard 384 well format. 5 ul of Human Full Length PARG (Produced internally by Astra Zeneca), used at a final reaction concentration of […], was added to 5 ul of Ribosylated PARP substrate (also produced internally by Astra Zeneca) at final reaction concentration of 4.5 nM in assay buffer (50 mM Tris pH7.4, 0.1 mg/ml BSA, 3 mM EDTA, 0.4 mM EGTA, 1 mM DTT, 0.01% Tween 20, 50 mM KCl). The reaction was incubated at room temperature for 10 minutes and then 5 ul detection reagent was added. Detection Reagent consists of 42 nM MAb Anti-6HIS XL665 (CisBio: 61 HISXLB) and 2.25 nM Streptavidin Europium Cryptate (CisBio: 610SAKLB), both at 3× working stock concentrations (final concentrations of 14 nM and 0.75 nM respectively), in a detection buffer of 50 mM Tris pH7.4, BSA at 0.1 mg/ml and KF at 100 mM. Following incubation at room temperature for 60 minutes in the dark, TR-FRET signal was measured at Ex 340 and Em 665 and Em 620. A ratio was calculated as Em665/EM620x104 for each well and used to calculate percent inhibition for test compounds.

Human Full Length PARG, sequence (Q86W56 whole entry): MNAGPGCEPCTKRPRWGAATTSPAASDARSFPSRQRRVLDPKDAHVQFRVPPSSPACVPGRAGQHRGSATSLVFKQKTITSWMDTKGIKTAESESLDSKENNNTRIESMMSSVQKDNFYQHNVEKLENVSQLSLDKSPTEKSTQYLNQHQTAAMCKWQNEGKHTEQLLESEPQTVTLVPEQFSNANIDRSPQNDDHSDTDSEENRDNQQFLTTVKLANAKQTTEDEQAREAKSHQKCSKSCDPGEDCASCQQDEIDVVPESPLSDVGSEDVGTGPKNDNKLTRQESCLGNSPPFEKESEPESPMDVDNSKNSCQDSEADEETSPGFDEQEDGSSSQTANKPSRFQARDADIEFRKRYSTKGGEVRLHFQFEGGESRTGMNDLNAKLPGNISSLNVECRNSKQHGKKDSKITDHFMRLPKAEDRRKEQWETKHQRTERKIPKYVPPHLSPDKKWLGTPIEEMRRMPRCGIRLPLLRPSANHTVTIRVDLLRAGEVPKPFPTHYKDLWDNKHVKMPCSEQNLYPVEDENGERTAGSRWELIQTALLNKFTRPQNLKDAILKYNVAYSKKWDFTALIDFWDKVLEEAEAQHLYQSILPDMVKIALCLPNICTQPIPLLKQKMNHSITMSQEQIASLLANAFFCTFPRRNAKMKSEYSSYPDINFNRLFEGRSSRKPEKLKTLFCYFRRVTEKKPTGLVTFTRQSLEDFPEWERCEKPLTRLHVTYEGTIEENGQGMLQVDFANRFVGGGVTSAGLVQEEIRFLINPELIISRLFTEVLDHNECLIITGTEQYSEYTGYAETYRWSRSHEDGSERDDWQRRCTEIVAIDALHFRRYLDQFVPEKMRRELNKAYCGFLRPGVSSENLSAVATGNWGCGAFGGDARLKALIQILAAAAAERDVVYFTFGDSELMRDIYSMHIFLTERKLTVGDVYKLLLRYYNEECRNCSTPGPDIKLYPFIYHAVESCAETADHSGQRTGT

Row | EC50 | Compound
1 | 1.55 µM | Cn1c(=O)n(-c2nnc(N)s2)c2cc(S(=O)(=O)NC3(C)CC3)ccc21 [Example 81, 3-(5-Amino-1,3,4-thiadiazol-2-yl)-1-methyl-N-(1-methylcyclopropyl)-2-oxo-benzimidazole-5-sulfonamide]
2 | 12.2 µM | Cc1nsc(-n2c(=O)n(C)c3ccc(S(=O)(=O)NC4(CF)CC4)cc32)n1 [Example 177]
